In paper PMC9576617, “A new LKB1 activator, piericidin analogue S14, retards renal fibrosis through promoting autophagy and mitochondrial homeostasis in renal tubular epithelial cells” (Theranostics, 2022):

Target: T1, LKB1 (Liver kinase B1, STK11) (Homo sapiens, UniProt Q15831)
T1 construct: Recombinant Human LKB1 (CSB-EP624036HU)
T1 sequence (Q15831 1-430): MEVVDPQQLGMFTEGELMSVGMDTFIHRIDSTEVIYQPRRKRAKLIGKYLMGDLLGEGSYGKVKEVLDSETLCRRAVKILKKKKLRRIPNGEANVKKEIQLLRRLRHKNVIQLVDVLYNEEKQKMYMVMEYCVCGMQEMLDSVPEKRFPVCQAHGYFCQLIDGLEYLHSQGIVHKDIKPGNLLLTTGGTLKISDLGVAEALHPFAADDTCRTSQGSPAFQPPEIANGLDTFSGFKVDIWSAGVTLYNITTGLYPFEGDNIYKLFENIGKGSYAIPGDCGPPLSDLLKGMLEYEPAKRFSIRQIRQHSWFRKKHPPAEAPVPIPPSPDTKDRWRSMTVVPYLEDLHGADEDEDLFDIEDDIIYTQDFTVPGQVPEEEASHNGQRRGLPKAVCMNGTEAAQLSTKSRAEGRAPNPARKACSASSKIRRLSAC
Assay: SPR imaging (PlexArray HT A100), LKB1 immobilized on a 3D Dextran chip, […] fit
Type: binding

Q: Which Kd does the source give for `COc1nc(C/C=C(\C)C/C=C/C(C)=C/[C@@H](C)[C@@H](O[C@@H]2O[C@H](CO)[C@@H](O)[C@H](O)[C@H]2O)/C(C)=C/CO)c(C)c(O)c1OC` [PA-S14, piericidin analogue S14] here?
A: Its Kd is 0.12 µM.
